# Results reported in publication PMC12276038, “Impact of Chelation on Reactivity and Cytotoxicity of Hemilabile Biphenyl Gold(III) N‐Heterocyclic Carbene Complexes” (Chemmedchem, 2025).
# How the values were obtained:
# [1] = Log P determination by reverse-phase HPLC (OECD method); settings: 25% water in acetonitrile (condition B)
# [2] = Reaction with chloride ions by 1H NMR; format: physicochemical; settings: 1 eq. chloride source, DMSO‐d6/D2O 4/1
# Experimental: Reaction with Chloride Ions: 400 μL of freshly prepared gold complex solution in DMSO‐d6 (5 mM) was added to an NMR tube, followed by 4 μL of 0.5 M NaCl in D2O and 96 μL of D2O. Spectra were acquired straight away (t0 reference) prior to transferring the tubes to an oven set at 37 °C for 72 h. Spectra were then acquired periodically during incubation.
# [3] = tested on: effector caspases 3 and 7 in HeLa cells; assay: Caspase 3/7 activity and cellular morphology by time lapse videomicroscopy; format: cell-based, human; settings: for Rate of apoptosis induction (caspase activation kinetics): BGC19b 1.7 μM, CCCP 10 μM
# Experimental: Apoptosis is a possible outcome of energy shortage in cells following mitochondrial depolarization. We thus monitored the activity of the effector caspases 3 and 7, as a readout of cell apoptosis. The overall cellular morphology was analyzed in parallel.
# HeLa cells were seeded in an 8‐well Ibidi slide (4000 cells in 500 μL complete medium per well) and allowed to grow for 24 h. The culture medium was changed to a fresh one (DMEM 5% FBS, 200 μL) containing SiR‐DNA dye (Spirochrome, 1 μM) and CellEvent Caspase 3/7 Green marker (ThermoFisher, 1 μM). […] Cells were monitored for 24 h (20 min step between images) by phase contrast and fluorescence microscopy (Cy5 and EGFP filters for SiR‐DNA and CellEvent Caspase 3/7 markers, respectively). Images were processed using Fiji, and cellular viabilities were extracted as Viability=1−NEGFP/NCy5 where N i denotes the number of cells counted in channel i. Cells were counted in EGFP and Cy5 channels using TrackMate (DoG detector + Simple LAP tracker).^[ [62] ^] The cellular morphology was also manually monitored using the phase contrast channel by tagging cells losing adhesion and displaying blebs.^[ [60] ^]
# [4] = design: method as in PMID 29277693; settings: read-out: EC50 of CCCP; cited from earlier work
# HeLa cells [5] = assay: Resazurin cell proliferation assay on HeLa cells; format: cell-based, human; settings: 72 h incubation
# Excerpt: All new 16 BGC compounds were screened against HeLa cells (cervical adenocarcinoma) to assess their antiproliferative activity through a resazurin cell viability assay.^[ [49] ^] The dose‐response curves were then fitted by a 4‐parameter sigmoid function to extract the median effective concentrations (EC50) shown in Figure 7 .
# (§1) HeLa and MDA‐MB‐231 cells were cultivated in DMEM GlutaMax High Glucose supplemented with 10 vol% fetal bovine serum (FBS) and 1 vol% penicillin/streptomycin (50 U/mL and 50 μg/mL respectively). Huh‐7 cells were cultivated in MEM supplemented with 10 vol% FBS, GlutaMax (2 mM), sodium pyruvate (1 mM), nonessential amino acids mix (0.1 mM), and 1 vol% penicillin/streptomycin. MCF10A cells were cultivated in DMEM:F12 GlutaMax supplemented with 1 vol% penicillin/streptomycin, hEGF (20 ng/mL), hydrocortisone ([…]), cholera toxin (100 ng/mL), insulin (10 μg/mL), and 5 vol% horse serum. These media will be further referred as “Complete media.”
# (§2) Stock solutions of the gold complexes (20 mM) were prepared in DMSO and kept at −20 °C. Serial dilutions were performed to obtain a set of 8 concentrations with a 2‐fold geometric progression, and were stored at −20 °C as well.
# Cell proliferation assays were performed using resazurin as a viability indicator. Cells were seeded in 96‐well plates (2000 cells/100 μL per well) in the appropriate complete medium and allowed to grow for 24 h. Cells were then treated in triplicate with 8 different concentrations of the complexes, which were added as 100 μL of 2x dilution in culture medium containing no FBS (or containing 5% horse serum for MCF‐10 A cells), thus leading to a 5% concentration of serum in each well. After 72 h incubation, 110 μL of supernatant was removed from each well, and 10 μL of 500 μM resazurin solution (10x) in PBS were added prior to incubating the cells for 2 h. The fluorescence intensity of the reduction product resorufin was measured in each well (540 nm excitation, 590 nm reading), and cellular viability was computed as the fluorescence ratio between sample and DMSO control wells after blank subtraction. The EC50 value was computed by fitting the data with a 4‐parameter sigmoid σ through nonlinear least square regression, where the EC50 value is directly the c parameter. The regression was performed using curve_fit() function scipy.optimize module in python (scripts available^[ [60] ^]). σ(x,a,b,c,d)=d+a−d/1+(x/c)^b
# [6] = molecules of known Log(k′w) used for calibration; cited from earlier work
# [7] = tested on: mitochondrial membrane potential of HeLa cells; assay: Mitochondrial membrane polarization JC-10 endpoint assay; format: cell-based, human; settings: 10 μM, 1 h or 4 h
# Experimental: Several gold complexes were previously reported to accumulate in mitochondria^[ [50], [51] ^] or even to disrupt their membrane potential.^[ [27], [52], [53] ^] We therefore investigated the possible antimitochondrial activity of BGC19b, chosen as a representative of the most toxic compounds. Briefly, we incubated HeLa cells with BGC19b (1 h or 4 h) or CCCP (4 h) as positive control and monitored the mitochondrial membrane potential through a JC‐10 endpoint assay.
# HeLa cells were seeded in a 96‐well plate (2000 cells in 100 μL complete medium per well) and left to adhere. Cells were then treated in triplicate with gold complexes (addition of 100 μL of 2x complex solution in FBS‐free medium) 4 h and 1 h before reading the plate. A control triplicate was treated with CCCP (10 μM) and incubated for 4 h before reading. One hour before reading, 100 μL of supernatant was withdrawn from each well and replaced with JC‐10 in assay buffer A solution (Abcam, 1x, 50 μL). Cells were incubated with the marker for 1 h, and assay buffer B (50 μL) was added. Mitochondrial membrane potential was assessed by computing the ratio of fluorescence intensities between aggregated (λ ex = 540 nm, λ fluo = 590 nm) and nonaggregated JC‐10 (λ ex = 490 nm, λ fluo = 525 nm). […]
# MCF‐10 A = assay: Resazurin cell proliferation assay on noncancerous MCF-10A cells; format: cell-based, human; settings: MCF‐10 A noncancerous cells, 72 h incubation
# Excerpt: (§3) Considering the equivalent activities for neutral and cationic analogs, only cationic representatives of the BGC12, BGC18, and BGC19 couples were further screened on two other human cancer cell lines including hepatic carcinoma Huh‐7 and “triple negative” breast adenocarcinoma MDA‐MB‐231 and noncancerous epithelial breast cells MCF‐10 A (Table 1 ).
# as §1, §2
# (§4) Cell proliferation assays were performed using resazurin as a viability indicator. Cells were seeded in 96‐well plates (2000 cells/100 μL per well) in the appropriate complete medium and allowed to grow for 24 h. Cells were then treated in triplicate with 8 different concentrations of the complexes, which were added as 100 μL of 2x dilution in culture medium containing no FBS (or containing 5% horse serum for MCF‐10 A cells), thus leading to a 5% concentration of serum in each well. […] The fluorescence intensity of the reduction product resorufin was measured in each well (540 nm excitation, 590 nm reading), and cellular viability was computed as the fluorescence ratio between sample and DMSO control wells after blank subtraction. […]
# [8] = Speciation in DMSO-d6/serum-free DMEM by 1H NMR; format: physicochemical; settings: 3/1 DMSO‐d6/serum‐free DMEM, immediately after mixing (t < 5 min)
# Experimental: Speciation in DMEM: NMR spectra were recorded on a Bruker Avance II 300 spectrometer (7 T) operating at a ^1H Larmor frequency of 300.13 MHz with a 5 mm observe broadband probe (QNP) z‐axis (^31P/^19 F/^13C/^1H) at 27 °C.
# Solutions of the gold complexes (10 mM) were freshly prepared in DMSO‐d6. Samples were prepared by mixing 200 μL of complex solution with 100 μL (resp. 67 μL) of pure DMSO‐d6 and 100 μL (resp. 133 μL) of DMEM GlutaMax High glucose without FBS. ^1H NMR spectra were acquired immediately after mixing (t < 5 min) using a standard zg30 sequence to determine the resonant frequency of water in the tube. Further spectra were acquired using a cpmg‐esgp1d sequence (pulse program available^[ [60] ^]) which carrier frequency (O1P) was tuned to the water peak maximum to ensure optimal water suppression. The Hahn echo time (D20) was left null to acquire a spectrum without the use of T2‐gating. A particular attention was paid to the shimming process as poor shims result in a broader water signal thus leading to an inefficient water suppression.
# MDA‐MB‐231 = assay: Resazurin cell proliferation assay on MDA-MB-231 cells; format: cell-based, human; settings: MDA‐MB‐231, 72 h incubation
# Excerpt: as §3, §1, §2, §4
# HeLa cells [9] = assay: Resazurin viability run in parallel to the JC-10 assay; format: cell-based, human; settings: 10 μM, 1 h and 4 h
# Huh‐7 = assay: Resazurin cell proliferation assay on Huh-7 cells; format: cell-based, human; settings: Huh‐7, 72 h incubation
# Excerpt: as §3, §1, §2, §4
# [10] = Solvolysis / stability in DMSO-d6 and DMSO-d6/D2O by 1H NMR; format: physicochemical; settings: 24 h incubation at 37 °C in DMSO
# Experimental: Solvolysis Kinetics: 400 μL of freshly prepared gold complex solution in DMSO‐d6 (5 mM) was transferred to an NMR tube. Spectra were acquired straight away (t0 reference) prior to transferring the tubes to an oven set at 37 °C for 72 h. Spectra were then acquired periodically during incubation. The same procedure was repeated with addition of 100 μL of D2O to each tube.
# Solvolysis: A concentrated solution of gold complex (≈40 mM) was prepared in 1 mL DMSO‐d6 mixed with 250 μL of D2O and incubated at 37 °C for 24 h. The solution was then extracted 5 times with 3 mL DCM. The DCM phase was recovered and evaporated thoroughly, and the resulting residue was dissolved in MeCN‐d3 and analyzed by ^1H NMR.
smiles,measurement,setting,value
COc1cc[n+]2c(c1)Cn1cc[n+](C)[c]1[Au-]21[c]2cc(C(C)(C)C)ccc2-c2ccc(C(C)(C)C)c[c]21.F[P-](F)(F)(F)(F)F [BGC15b],"Log P (cationic b, form)",[1],4.2
same,Conversion of cationic to neutral form on addition of chloride,[2],converted back quantitatively and instantaneously
"N#CC(C#N)=NNc1cccc(Cl)c1 [CCCP, reference compound]",Rate of apoptosis induction (caspase activation kinetics),[3],occurred at a much slower rate compared to BGC19b
same,EC50,[4],10000 nM
Cc1cc[n+]2c(c1)Cn1cc[n+](C)[c]1[Au-]21[c]2cc(C(C)(C)C)ccc2-c2ccc(C(C)(C)C)c[c]21.F[P-](F)(F)(F)(F)F [BGC14b],"Log P (cationic b, form)",[1],4.8
C[n+]1ccn2[c]1[Au-]1([c]3cc(C(C)(C)C)ccc3-c3ccc(C(C)(C)C)c[c]31)[n+]1c(ccc3ccccc31)C2.F[P-](F)(F)(F)(F)F [BGC16b],"Log P (cationic b, form)",[1],4.5
same,EC50,HeLa cells [5],3200 ± 300 nM
COc1ccccc1 [Anisole],log(k’w) of log P standard mix,[6],2.1
c1ccc2ccccc2c1 [Naphtalene],log(k’w) of log P standard mix,[6],3.6
CCCCCCCCc1ccccc1 [Octylbenzene],log(k’w) of log P standard mix,[6],6.3
Cc1cccc2[n+]1[Au-]1([c]3cc(C(C)(C)C)ccc3-c3ccc(C(C)(C)C)c[c]31)[c]1n(cc[n+]1C)C2.F[P-](F)(F)(F)(F)F [BGC13b],"Log P (cationic b, form)",[1],4.4
C[n+]1ccn2[c]1[Au-]1([c]3cc(C(C)(C)C)ccc3-c3ccc(C(C)(C)C)c[c]31)[n+]1ccncc1C2.F[P-](F)(F)(F)(F)F [BGC17b],"Log P (cationic b, form)",[1],3.5
CC(C)(C)c1ccc2[c](c1)[Au-]1([c]3cc(C(C)(C)C)ccc3-2)[c]2n3ccccc3c[n+]2Cc2cccc[n+]21.F[P-](F)(F)(F)(F)F [BGC19b],Mitochondrial membrane depolarization,[7],significant mitochondrial membrane depolarization
same,EC50,MCF‐10 A,1600 ± 400 nM
same,"Induction period before adhesion loss, blebs and caspase 3/7 activation",[3]; 1.7 μM,around 4 h
same,Rate of apoptosis induction (caspase activation kinetics),[3],induces apoptosis much faster than CCCP
same,"Log P (cationic b, form)",[1],4.3
same,Species identified in culture medium mixture,[8],only the neutral complexes were identified
same,EC50,MDA‐MB‐231,2000 ± 100 nM
same,EC50,HeLa cells [5],1800 ± 600 nM
same,Conversion of cationic to neutral form on addition of chloride,[2],converted back quantitatively and instantaneously
same,Change in cell viability during JC-10 assay,HeLa cells [9],no significant change in cell viability
same,EC50,Huh‐7,1400 ± 100 nM
C[n+]1ccn2[c]1[Au-]1([c]3cc(C(C)(C)C)ccc3-c3ccc(C(C)(C)C)c[c]31)[n+]1ccccc1C2.F[P-](F)(F)(F)(F)F [BGC12b],Spectra in MeCN‐d3 after incubation in DMSO and extraction in DCM,[10],unchanged
same,EC50,MCF‐10 A,1200 ± 300 nM
same,"Log P (cationic b, form)",[1],3.9
same,Species identified in culture medium mixture,[8],only the neutral complexes were identified
same,EC50,MDA‐MB‐231,2900 ± 100 nM
same,EC50,HeLa cells [5],1800 ± 100 nM
same,Conversion of cationic to neutral form on addition of chloride,[2],converted back quantitatively and instantaneously
same,EC50,Huh‐7,1800 ± 100 nM
C[n+]1[c]2n(c3ccccc31)Cc1cccc[n+]1[Au-]21[c]2cc(C(C)(C)C)ccc2-c2ccc(C(C)(C)C)c[c]21.F[P-](F)(F)(F)(F)F [BGC18b],EC50,MCF‐10 A,2800 ± 500 nM
same,"Log P (cationic b, form)",[1],4.5
same,EC50,MDA‐MB‐231,4400 ± 800 nM
same,EC50,HeLa cells [5],2800 ± 700 nM
same,EC50,Huh‐7,2500 ± 400 nM
